Consider 19 molecules from patent publication US20250144067A1, “PERSONALIZED STARVATION THERAPY FOR CANCER” (Faeth Therapeutics, Inc., priority 2021, published 2025).

Where a name gives a salt, the structure may show the parent alone.

Test [1] has as its system NCI-H292 lung cancer cells. In words: FDA drug screening, complete media vs cholesterol-free media with simvastatin (TABLE 2). Format: cell-based, human. The conditions noted are these: for Cholesterol-free media + simvastatin (0.04 μM) / Complete Media: NCI-H292 cells.
Test [2] deals with NCI-H292 lung cancer cells. In words: FDA drug screening, complete media vs cholesterol-free media without statin (TABLE 1). It is filed as cell-based, human.
[3] abbreviates: FDA drug library screen, cholesterol-free media with simvastatin 0.04 μM.
Where [4] appears, read: FDA drug library screen, complete media.
Where [5] appears, read: complete media vs cholesterol-free media + simvastatin (0.04 μM), >0 enhanced anti-cancer activity, about 0 neutral, <0 antagonist.
Setting [6] is: Complete minus Cholesterol-free, greater than 0 enhanced anti-cancer activity, about 0 neutral, below 0 antagonist.
Setting [7] is: NCI-H292 cells, FDA drug library screen, cholesterol-free media without statin.
Where [8] appears, read: NCI-H292 cells, FDA drug library screen, complete media.
Setting [9] is: drug in cholesterol-free media with simvastatin 0.04 μM.
Setting [10] is: NCI-H292 cells, cholesterol-free media without statin.
Where [11] appears, read: complete vs cholesterol-free media, greater than 0 enhanced anti-cancer activity, about 0 neutral, below 0 antagonists.
Where [12] appears, read: cholesterol-free media with simvastatin 0.04 μM, FDA drug library screen (TABLE 2).
Setting [13] is: complete media, FDA drug library screen (TABLE 2).
[14] abbreviates: complete media minus cholesterol-free media + simvastatin (0.04 μM), >0 enhanced anti-cancer activity, about 0 neutral, <0 antagonist.
The mark [15] stands for this setting: NCI-H292 cells, cholesterol-free media without statin, FDA drug library screen.
The mark [16] stands for this setting: NCI-H292 cells, complete media, FDA drug library screen.
Where [17] appears, read: complete vs cholesterol-free media, >0 enhanced anti-cancer activity, about 0 neutral, <0 antagonist.
[18] abbreviates: complete media minus cholesterol-free media + simvastatin, >0 enhanced anti-cancer activity, about 0 neutral, <0 antagonist.
Where [19] appears, read: Complete minus Cholesterol-free, […].
Where [20] appears, read: NCI-H292 cells in cholesterol-free media without statin.
Where [21] appears, read: NCI-H292 cells in complete media.
Where [22] appears, read: FDA library drug in cholesterol-free media with simvastatin 0.04 μM.
The mark [23] stands for this setting: FDA library drug in complete media.
The mark [24] stands for this setting: Complete minus Cholesterol-free, >0 enhanced anti-cancer activity, about 0 neutral, <0 antagonist.
The mark [25] stands for this setting: Complete minus Cholesterol-free, greater than 0 enhanced anti-cancer activity, about 0 neutral, below 0 antagonists.
Where [26] appears, read: complete media vs cholesterol-free media + simvastatin (0.04 μM), […].

Turning to `CCOC(=O)C(C)(C)Oc1ccc(Cl)cc1` [Clofibrate], in test [1] (setting [3]), the “Cholesterol-free media + simvastatin (0.04 μM)” value stood at 1.786. For the same molecule, the “Complete Media” value in test [1] (setting [4]) is given as 1.654. The Difference in test [1] (setting [5]) is recorded as −0.13; in test [2] (setting [6]) it was −0.12. Also, the Cholesterol-free in test [2] (setting [7]) is given as 1.138. This molecule registered a Complete in test [2] (setting [8]) of 1.018.
With `N=C(N)/N=C(\N)N1CCOCC1` [Moroxydine (hydrochloride)], the “Cholesterol-free media + simvastatin (0.04 μM)” value in test [1] (setting [9]) stood at 1.02. In test [1] (drug in complete media), the “Complete Media” value was found to be 0.8563. Further, the figures for the Difference in test [1] (setting [5]) and in test [2] (setting [11]) were −0.16 and −0.32, respectively. The molecule also showed a Cholesterol-free in test [2] (setting [10]) of 1.172. The molecule also registered a Complete in test [2] (NCI-H292 cells, complete media) of 0.8572.
In the case of `NC(=O)CC[C@H](N)C(=O)O` [L-Glutamine], in test [1] (setting [12]), the “Cholesterol-free media + simvastatin (0.04 μM)” value is 0.8178. Moreover, the “Complete Media” value in test [1] (setting [13]) was 0.7954. The Difference in test [1] (setting [14]) is −0.02; in test [2] (setting [17]) it was 0.50. In test [2] (setting [15]), this molecule registered a Cholesterol-free of 1.026. In test [2] (setting [16]), this molecule returned a Complete of 1.522.
With `CC(C)(C)NC(=O)[C@H]1CC[C@H]2[C@@H]3CC=C4C=C(C(=O)O)CC[C@]4(C)[C@H]3CC[C@]12C` [Epristeride], the “Cholesterol-free media + simvastatin (0.04 μM)” value in test [1] (setting [3]) is given as 0.7018. In addition, in test [1] (setting [4]), the “Complete Media” value turned out to be 0.8964. Further, the Difference was found to be 0.19 in test [1] (setting [18]) and 0.46 in test [2] (setting [17]). Further, in test [2] (setting [15]), the Cholesterol-free is 0.5663. This molecule displayed a Complete in test [2] (setting [16]) of 1.029.
Chondroitin (sulfate): the “Cholesterol-free media + simvastatin (0.04 μM)” value in test [1] (cholesterol-free media with simvastatin 0.04 μM, […]) was 1.097. The “Complete Media” value in test [1] (complete media, […]) is 1.158. In addition, the Difference was 0.06 in test [1] (complete media minus cholesterol-free media + simvastatin, […]) and −0.48 in test [2] (setting [19]). For the same molecule, the Cholesterol-free in test [2] (setting [20]) stood at 1.247. The same molecule displayed a Complete in test [2] (setting [21]) of 0.7715.
Regarding `Nc1nc2[nH]cc(CCc3ccc(C(=O)N[C@@H](CCC(=O)O)C(=O)O)cc3)c2c(=O)[nH]1` [Pemetrexed (disodium hemipenta hydrate)], the “Cholesterol-free media + simvastatin (0.04 μM)” value in test [1] (setting [12]) worked out at 0.2685. Besides, in test [1] (setting [13]), the “Complete Media” value turned out to be 0.2746. In addition, the Difference was 0.01 in test [1] (setting [14]) and 0.07 in test [2] (setting [17]). This molecule showed a Cholesterol-free in test [2] (setting [15]) of 0.09445. The molecule also returned a Complete in test [2] (setting [16]) of 0.1693.
On to `CCOC(=O)[C@H](CCc1ccccc1)N[C@@H](C)C(=O)N1Cc2cc(OC)c(OC)cc2C[C@H]1C(=O)O` [Moexipril (hydrochloride)], for which, in test [1] (setting [22]), the “Cholesterol-free media + simvastatin (0.04 μM)” value was determined as 1.452. Moreover, the “Complete Media” value in test [1] (setting [23]) is 1.081. For the same molecule, the Difference in test [1] (setting [5]) is reported as −0.37; in test [2] (setting [24]) it was 0.02. The same molecule yielded a Cholesterol-free in test [2] (setting [15]) of 1.004. Also, in test [2] (setting [16]), the Complete worked out at 1.024.
Terbutaline (sulfate): the “Cholesterol-free media + simvastatin (0.04 μM)” value in test [1] (setting [3]) was 1.189. Besides, the Difference in test [1] (setting [5]) was −0.15; in test [2] (setting [24]), −0.29. The molecule also registered a Cholesterol-free in test [2] (setting [10]) of 1.263. Further, in test [2] (NCI-H292 cells, complete media), the Complete stood at 0.9738.
For the molecule `c1ccc(C2CN3CCSC3=N2)cc1` (stereo not shown) [Tetramisole (hydrochloride)], in test [1] (setting [12]), the “Cholesterol-free media + simvastatin (0.04 μM)” value is on record as 1.011. For the same molecule, the “Complete Media” value in test [1] (setting [13]) stood at 0.9757. Also, the Difference in test [1] (setting [14]) is −0.04; in test [2] (setting [11]), −0.44. This molecule also returned a Cholesterol-free in test [2] (setting [10]) of 1.362. The Complete in test [2] (NCI-H292 cells, complete media) worked out at 0.9185.
For the molecule `C/C=C/C1=C(C(=O)O)N2C(=O)[C@@H](NC(=O)[C@H](N)c3ccc(O)cc3)[C@H]2SC1.O` [Cefprozil (monohydrate)], the “Cholesterol-free media + simvastatin (0.04 μM)” value in test [1] (setting [3]) is 0.9773. The “Complete Media” value in test [1] (setting [4]) was found to be 1.216. For the same molecule, the Difference was 0.24 in test [1] (setting [18]) and −0.33 in test [2] (setting [11]). Also, in test [2] (setting [10]), the Cholesterol-free came to 1.442. The Complete in test [2] (NCI-H292 cells, complete media) is given as 1.109.
As for `O=C(O)c1ccccc1OP(=O)(O)O` [2-(Phosphonooxy)benzoic acid], the “Cholesterol-free media + simvastatin (0.04 μM)” value in test [1] (setting [9]) is reported as 1.147. Further, the “Complete Media” value in test [1] (drug in complete media) is listed as 0.9779. The Difference in test [1] (setting [5]) is −0.17; in test [2] (setting [25]), −0.51. Further, the Cholesterol-free in test [2] (setting [20]) is on record as 1.515. This molecule gave a Complete in test [2] (setting [21]) of 1.005.
Take `O=C(CCCCC(=O)Nc1c(I)cc(I)c(C(=O)O)c1I)Nc1c(I)cc(I)c(C(=O)O)c1I` [Iodipamide]: in test [1] (setting [9]), the “Cholesterol-free media + simvastatin (0.04 μM)” value is given as 1.387. Further, in test [1] (drug in complete media), the “Complete Media” value came to 1.135. Moreover, the Difference in test [1] (setting [5]) is reported as −0.25; in test [2] (setting [6]), −0.08. In addition, the Cholesterol-free in test [2] (setting [7]) is 0.9527. Also, the Complete in test [2] (setting [8]) is given as 0.876.
As for `COc1ccc(C(CN(C)C)C2(O)CCCCC2)cc1` (stereo not shown) [Venlafaxine (hydrochloride)], the “Cholesterol-free media + simvastatin (0.04 μM)” value in test [1] (setting [22]) turned out to be 1.551. Also, the “Complete Media” value in test [1] (setting [23]) is 1.023. Moreover, the Difference in test [1] (setting [26]) is reported as −0.53; in test [2] (complete vs cholesterol-free media, […]) it was −0.32. In addition, in test [2] (setting [10]), the Cholesterol-free stood at 1.049. In test [2] (NCI-H292 cells, complete media), this molecule had a Complete of 0.7326.
In the case of `CCCc1c2oc(C(=O)O)cc(=O)c2cc2c(=O)cc(C(=O)O)n(CC)c12` [Nedocromil], the “Cholesterol-free media + simvastatin (0.04 μM)” value in test [1] (setting [22]) stood at 1.951. The “Complete Media” value in test [1] (setting [23]) worked out at 1.336. Moreover, the Difference in test [1] (setting [5]) was −0.61; in test [2] (setting [17]), 0.22. The molecule further came in with a Cholesterol-free in test [2] (setting [15]) of 1.678. In addition, in test [2] (setting [16]), the Complete was determined as 1.893.
`Cc1ncc(CO)c(CO)c1O.O=C1CC[C@@H](C(=O)O)N1` [Metadoxine]: the “Cholesterol-free media + simvastatin (0.04 μM)” value in test [1] (setting [3]) worked out at 1.163. In addition, the “Complete Media” value in test [1] (setting [4]) was 1.057. Also, the Difference in test [1] (setting [26]) is on record as −0.11; in test [2] (setting [19]), −0.12. Also, the Cholesterol-free in test [2] (setting [7]) came out at 1.129. For the same molecule, the Complete in test [2] (setting [8]) is 1.01.
For the molecule `CCCCCOc1ccccc1/C(=C\SC)n1ccnc1` [Neticonazole (hydrochloride)], the “Complete Media” value in test [1] (setting [4]) was found to be 0.9839. For the same molecule, the Difference in test [1] (setting [18]) is 0.45; in test [2] (setting [11]), −0.36. Besides, the Cholesterol-free in test [2] (setting [10]) is 1.192. In test [2] (NCI-H292 cells, complete media), this molecule had a Complete of 0.8359.
As to `CC[C@@H]([C@H](C)O)n1ncn(-c2ccc(N3CCN(c4ccc(OC[C@@H]5CO[C@@](Cn6cncn6)(c6ccc(F)cc6F)C5)cc4)CC3)cc2)c1=O` [Posaconazole], the “Cholesterol-free media + simvastatin (0.04 μM)” value in test [1] (setting [3]) is 1.5. Further, the “Complete Media” value in test [1] (setting [4]) was determined as 1.904. Besides, the values for the Difference in test [1] (setting [18]) and in test [2] (setting [25]) were 0.40 and −0.60, respectively. Besides, the Cholesterol-free in test [2] (setting [20]) came out at 1.481. Further, the Complete in test [2] (setting [21]) is reported as 0.8852.
Consider `CCCNS(=O)(=O)Nc1ncnc(OCCOc2ncc(Br)cn2)c1-c1ccc(Br)cc1` [Macitentan], for which, in test [1] (setting [3]), the “Cholesterol-free media + simvastatin (0.04 μM)” value amounted to 1.697. Besides, the “Complete Media” value in test [1] (setting [4]) turned out to be 1.56. The results for the Difference in test [1] (setting [5]) and in test [2] (setting [25]) were −0.14 and −0.48, respectively. The molecule further came in with a Cholesterol-free in test [2] (setting [20]) of 1.592. Besides, the Complete in test [2] (setting [21]) is given as 1.113.
For `OC[C@@H](O)[C@@H](O[C@@H]1O[C@H](CO)[C@H](O)[C@H](O)[C@H]1O)[C@H](O)[C@@H](O)CO` [Lactitol (monohydrate)], the “Cholesterol-free media + simvastatin (0.04 μM)” value in test [1] (cholesterol-free media with simvastatin 0.04 μM, cell growth value in FDA drug screen) is listed as 1.183. The “Complete Media” value in test [1] (complete media, cell growth value in FDA drug screen) amounted to 1.215. Moreover, the Difference in test [1] (setting [18]) was 0.03; in test [2] (setting [6]), −0.17. Also, the Cholesterol-free in test [2] (setting [7]) came to 1.059. Besides, in test [2] (setting [8]), the Complete was found to be 0.8908.
